Results published in patent US20210299134A1, “TREATMENT OF B CELL MALIGNANCIES” (MEI Pharma, Inc., priority 2018, published 2021).
Marks after values point to notes of the source that are not given here.

Test system: patients with FL or CLL/SLL
Experiment: Phase 1b study: adverse events of special interest (AESI) on IS or CS
Format: in vivo, human
Text: In some instances, severe cases of enterocolitis, rash, and transaminitis have been reported in a Phase 1b clinical study of Compound A35 in patients with B-cell malignancies. In some instances, the onset of severe immune-related toxicities were reported after a period of CS dosing greater than 2 cycles. A lymphocytic infiltrate was reported in biopsies obtained from 1 patient with colitis and 1 patient with severe skin rash enrolled in the study. Furthermore, corticosteroid therapy has been reported as effective treatment approach in patients who developed diarrhea and rash in the study.
Following reports of delayed onset of cases of enterocolitis and rash in patients with Compound A35 initially administered once a day on a continuous dosing schedule (CS) in a 28-day cycle, an alternate dosing regimen using an intermittent dosing schedule (IS) was evaluated. The hypothesis was that an IS of PI3K5 inhibitors including Compound A35 could reduce the incidence or lower the severity of immune mediated adverse events (irAEs) by allowing recovery of TREGs during treatment-free intervals. Furthermore, it was hypothesized that the IS, by delivering a lower dose-intensity treatment approach, could be used to re-treat patients who have experienced delayed irAEs on the CS or IS and had recovered following treatment interruption and a short course of corticosteroids.
An intermittent dosing schedule on days 1-7 of a 28-day cycle was then evaluated after 2 cycles of daily dosing, or ≥3 cycles of daily dosing to reduce the risk of immune-related adverse events. For this analysis the intermittent schedule (IS) group is defined as patients who received Compound A35 alone or with rituximab daily for 2 cycles then switched to an intermittent schedule of 1 week per cycle, and the continuous schedule (CS) group is defined as patients who never switched to intermittent dosing or switched to intermittent dosing in cycle 4 or later cycles. Toxicity on CS is managed by a switch to IS.
The IS was developed to mitigate the risk of delayed toxicities observed with PI3K inhibitors and believed to be associated with on-target effect PI3K inhibition on immune cells.

SMILES: CN1CCC(c2ccccc2CC(C)(C)Nc2nc(N3CCOCC3)nc(-n3c(C(F)F)nc4ccccc43)n2)CC1 [Compound A35]
- AESI ALT/AST increased, All Grades, patients (%) (CLL/SLL, All (N = 17)): 2 (11.8%)
- AESI ALT/AST increased, Related Grade 3, patients (%) (CLL/SLL, All (N = 17)): 0%
- AESI Diarrhea/colitis, All Grades, patients (%) (CLL/SLL, All (N = 17)): 9 (52.9%)
- AESI Diarrhea/colitis, Related Grade 3, patients (%) (CLL/SLL, All (N = 17)): 4 (23.5%)
- AESI Mucositis, All Grades, patients (%) (CLL/SLL, All (N = 17)): 1 (5.9%)
- AESI Mucositis, Related Grade 3, patients (%) (CLL/SLL, All (N = 17)): 0%
- AESI Pneumonia/Pneumonitis, All Grades, patients (%) (CLL/SLL, All (N = 17)): 3 (17.6%)
- AESI Pneumonia/Pneumonitis, Related Grade 3, patients (%) (CLL/SLL, All (N = 17)): 3 (17.6%)
- AESI Rash, all types, All Grades, patients (%) (CLL/SLL, All (N = 17)): 6 (35.3%)
- AESI Rash, all types, Related Grade 3, patients (%) (CLL/SLL, All (N = 17)): 0%
- AESI ALT/AST increased, All Grades, patients (%) (CLL/SLL, CS Group (N = 9)): 2 (22.2%)
- AESI ALT/AST increased, Related Grade 3, patients (%) (CLL/SLL, CS Group (N = 9)): 0%
- AESI Diarrhea/colitis, All Grades, patients (%) (CLL/SLL, CS Group (N = 9)): 6 (66.7%)
- AESI Diarrhea/colitis, Related Grade 3, patients (%) (CLL/SLL, CS Group (N = 9)): 3 (33.3%)
- AESI Mucositis, All Grades, patients (%) (CLL/SLL, CS Group (N = 9)): 1 (11.1%)
- AESI Mucositis, Related Grade 3, patients (%) (CLL/SLL, CS Group (N = 9)): 0%
- AESI Pneumonia/Pneumonitis, All Grades, patients (%) (CLL/SLL, CS Group (N = 9)): 3 (33.3%)
- AESI Pneumonia/Pneumonitis, Related Grade 3, patients (%) (CLL/SLL, CS Group (N = 9)): 3 (33.3%)
- AESI Rash, all types, All Grades, patients (%) (CLL/SLL, CS Group (N = 9)): 4 (44.0%)
- AESI Rash, all types, Related Grade 3, patients (%) (CLL/SLL, CS Group (N = 9)): 0%
- AESI ALT/AST increased, All Grades, patients (%) (CLL/SLL, IS Group (N = 8)): 0%
- AESI ALT/AST increased, Related Grade 3, patients (%) (CLL/SLL, IS Group (N = 8)): 0%
- AESI Diarrhea/colitis, All Grades, patients (%) (CLL/SLL, IS Group (N = 8)): 3 (37.5%)
- AESI Diarrhea/colitis, Related Grade 3, patients (%) (CLL/SLL, IS Group (N = 8)): 1 (12.5%)
- AESI Mucositis, All Grades, patients (%) (CLL/SLL, IS Group (N = 8)): 0%
- AESI Mucositis, Related Grade 3, patients (%) (CLL/SLL, IS Group (N = 8)): 0%
- AESI Pneumonia/Pneumonitis, All Grades, patients (%) (CLL/SLL, IS Group (N = 8)): 0%
- AESI Pneumonia/Pneumonitis, Related Grade 3, patients (%) (CLL/SLL, IS Group (N = 8)): 0%
- AESI Rash, all types, All Grades, patients (%) (CLL/SLL, IS Group (N = 8)): 2 (25.0%)
- AESI Rash, all types, Related Grade 3, patients (%) (CLL/SLL, IS Group (N = 8)): 0%
- AESI ALT/AST increased, All Grades, patients (%) (FL, All (N = 40)): 9 (22.5%)
- AESI ALT/AST increased, Related Grade 3, patients (%) (FL, All (N = 40)): 3 (7.5%)
- AESI Diarrhea/colitis, All Grades, patients (%) (FL, All (N = 40)): 17 (42.5%)
- AESI Diarrhea/colitis, Related Grade 3, patients (%) (FL, All (N = 40)): 6 (15.0%)
- AESI Mucositis, All Grades, patients (%) (FL, All (N = 40)): 6 (15.0%)
- AESI Mucositis, Related Grade 3, patients (%) (FL, All (N = 40)): 1 (2.5%)
- AESI Pneumonia/Pneumonitis, All Grades, patients (%) (FL, All (N = 40)): 2 (5.0%)
- AESI Pneumonia/Pneumonitis, Related Grade 3, patients (%) (FL, All (N = 40)): 2 (5.0%)
- AESI Rash, all types, All Grades, patients (%) (FL, All (N = 40)): 12 (30.0%)
- AESI Rash, all types, Related Grade 3, patients (%) (FL, All (N = 40)): 4 (10.0%)
- AESI ALT/AST increased, All Grades, patients (%) (FL, CS Group (N = 25)): 6 (24.0%)
- AESI ALT/AST increased, Related Grade 3, patients (%) (FL, CS Group (N = 25)): 3 (12.0%)
- AESI Diarrhea/colitis, All Grades, patients (%) (FL, CS Group (N = 25)): 10 (40.0%)
- AESI Diarrhea/colitis, Related Grade 3, patients (%) (FL, CS Group (N = 25)): 5 (20.0%)
- AESI Mucositis, All Grades, patients (%) (FL, CS Group (N = 25)): 6 (24.0%)
- AESI Mucositis, Related Grade 3, patients (%) (FL, CS Group (N = 25)): 1 (4.0%)
- AESI Pneumonia/Pneumonitis, All Grades, patients (%) (FL, CS Group (N = 25)): 2 (8.0%)
- AESI Pneumonia/Pneumonitis, Related Grade 3, patients (%) (FL, CS Group (N = 25)): 2 (8.0%)
- AESI Rash, all types, All Grades, patients (%) (FL, CS Group (N = 25)): 11 (44.0%)
- AESI Rash, all types, Related Grade 3, patients (%) (FL, CS Group (N = 25)): 4 (16.0%)
- AESI ALT/AST increased, All Grades, patients (%) (FL, IS Group (N = 15)): 3 (20.0%)
- AESI ALT/AST increased, Related Grade 3, patients (%) (FL, IS Group (N = 15)): 0%
- AESI Diarrhea/colitis, Related Grade 3, patients (%) (FL, IS Group (N = 15)): 1 (6.7%)
- AESI Mucositis, All Grades, patients (%) (FL, IS Group (N = 15)): 0%
- AESI Mucositis, Related Grade 3, patients (%) (FL, IS Group (N = 15)): 0%
- AESI Pneumonia/Pneumonitis, All Grades, patients (%) (FL, IS Group (N = 15)): 0%
- AESI Pneumonia/Pneumonitis, Related Grade 3, patients (%) (FL, IS Group (N = 15)): 0%
- AESI Rash, all types, All Grades, patients (%) (FL, IS Group (N = 15)): 1 (6.7%)
- AESI Rash, all types, Related Grade 3, patients (%) (FL, IS Group (N = 15)): 0%
- AESI Diarrhea/colitis, All Grades, patients (%) (FL, IS Group (N = 15), excluded 1 subject with diarrhea after POD and 1 with diarrhea lasting one day with no dose change): 7 (46.7%)*
- immune-mediated toxicities with IS administration (IS versus CS): reduces the incidence of or delayed onset of immune-mediated toxicities
- period of CS dosing before onset of severe immune-related toxicities (Phase 1b study, patients with B-cell malignancies, CS dosing): greater than 2 cycles
